Source: PubChem BioAssay AID1963437 (Molecular Pharmacology Branch, DTP, NCI, 2024)

Tested on: OVCAR-8 complex spheroid, growth inhibition
Assay: Anticancer human tumor OVCAR-8 cell line growth inhibition [Asc];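 further: spheroids exposed to agents for 7 days before readout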;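 on viability, T/C: percent viability relative to DMSO vehicle wells taken as 100%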
Settings: for IC50: curve of first compound; for viability, T/C: stronger effect = lower value
Summary of the method: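 Spheroid model: tumor line + HUVEC + hMSC. Single agents and combinations; top conc. at/near clinical Cmax (10 microM if undetermined), half-log dilutions. DMSO stocks at 800-fold test concentration.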

**Q.** Which IC50 (second compound 0.00949 µM) does the source give for COc1c(OCCCN2CCOCC2)ccc2c3n(c(=NC(=O)c4cnc(N)nc4)nc12)CCN3 + CCN1C(C(=O)NC23CCC(C(=O)O)(CC2)CC3)C(c2cccc(Cl)c2F)C2(C(=O)Nc3cc(Cl)ccc32)C12CCCCC2 here?
**A.** > 1 µM

**Q.** What about the IC50 (second compound 0.03 µM) of the same compound?
**A.** > 1 µM

**Q.** And the IC50 (second compound 0.0949 µM)?
**A.** > 1 µM

**Q.** What about the IC50 (second compound 0.3 µM) of the same compound?
**A.** > 1 µM

**Q.** And the IC50 (second compound 0.949 µM)?
**A.** > 1 µM

**Q.** What about the IC50 (second compound 3 µM) of the same compound?
**A.** > 1 µM

**Q.** What about the viability, T/C (second compound 0.00949 µM, first compound 0.00316 µM) of the same compound?
**A.** 94.7%

**Q.** And the viability, T/C (second compound 0.00949 µM, first compound 0.01 µM)?
**A.** 92.2%

**Q.** What about the viability, T/C (second compound 0.00949 µM, first compound 0.0316 µM) of the same compound?
**A.** 113%

**Q.** And the viability, T/C (second compound 0.00949 µM, first compound 0.1 µM)?
**A.** 170%

**Q.** And the viability, T/C (second compound 0.00949 µM, first compound 0.316 µM)?
**A.** 140%

**Q.** What about the viability, T/C (second compound 0.00949 µM, first compound 1 µM) of the same compound?
**A.** 97.1%

**Q.** And the viability, T/C (second compound 0.03 µM, first compound 0.00316 µM)?
**A.** 81.5%

**Q.** What about the viability, T/C (second compound 0.03 µM, first compound 0.01 µM) of the same compound?
**A.** 101%

**Q.** And the viability, T/C (second compound 0.03 µM, first compound 0.0316 µM)?
**A.** 121%

**Q.** What about the viability, T/C (second compound 0.03 µM, first compound 0.1 µM) of the same compound?
**A.** 134%

**Q.** And the viability, T/C (second compound 0.03 µM, first compound 0.316 µM)?
**A.** 133%

**Q.** And the viability, T/C (second compound 0.03 µM, first compound 1 µM)?
**A.** 91.2%

**Q.** What about the viability, T/C (second compound 0.0949 µM, first compound 0.00316 µM) of the same compound?
**A.** 104%

**Q.** What about the viability, T/C (second compound 0.0949 µM, first compound 0.01 µM) of the same compound?
**A.** 99%

**Q.** And the viability, T/C (second compound 0.0949 µM, first compound 0.0316 µM)?
**A.** 117%

**Q.** And the viability, T/C (second compound 0.0949 µM, first compound 0.1 µM)?
**A.** 165%

**Q.** And the viability, T/C (second compound 0.0949 µM, first compound 0.316 µM)?
**A.** 154%

**Q.** And the viability, T/C (second compound 0.0949 µM, first compound 1 µM)?
**A.** 92.4%

**Q.** And the viability, T/C (second compound 0.3 µM, first compound 0.00316 µM)?
**A.** 103%

**Q.** And the viability, T/C (second compound 0.3 µM, first compound 0.01 µM)?
**A.** 103%

**Q.** And the viability, T/C (second compound 0.3 µM, first compound 0.0316 µM)?
**A.** 108%

**Q.** And the viability, T/C (second compound 0.3 µM, first compound 0.1 µM)?
**A.** 153%

**Q.** What about the viability, T/C (second compound 0.3 µM, first compound 0.316 µM) of the same compound?
**A.** 133%

**Q.** What about the viability, T/C (second compound 0.3 µM, first compound 1 µM) of the same compound?
**A.** 80%

**Q.** And the viability, T/C (second compound 0.949 µM, first compound 0.00316 µM)?
**A.** 93.9%

**Q.** What about the viability, T/C (second compound 0.949 µM, first compound 0.01 µM) of the same compound?
**A.** 89.8%

**Q.** And the viability, T/C (second compound 0.949 µM, first compound 0.0316 µM)?
**A.** 146%

**Q.** And the viability, T/C (second compound 0.949 µM, first compound 0.1 µM)?
**A.** 172%

**Q.** And the viability, T/C (second compound 0.949 µM, first compound 0.316 µM)?
**A.** 144%

**Q.** What about the viability, T/C (second compound 0.949 µM, first compound 1 µM) of the same compound?
**A.** 80.9%

**Q.** And the viability, T/C (second compound 3 µM, first compound 0.00316 µM)?
**A.** 111%

**Q.** And the viability, T/C (second compound 3 µM, first compound 0.01 µM)?
**A.** 115%

**Q.** What about the viability, T/C (second compound 3 µM, first compound 0.0316 µM) of the same compound?
**A.** 133%

**Q.** What about the viability, T/C (second compound 3 µM, first compound 0.1 µM) of the same compound?
**A.** 153%

**Q.** What about the viability, T/C (second compound 3 µM, first compound 0.316 µM) of the same compound?
**A.** 126%

**Q.** And the viability, T/C (second compound 3 µM, first compound 1 µM)?
**A.** 90.2%
